Test results taken from ChEMBL document CHEMBL5528001, “Synthetic product-based approach toward potential antileishmanial drug development” (Eur J Med Chem, 2024).
Converted amounts (≈) assume the structure as drawn.

Experiments:
[1] = system: Leishmania donovani; test: Antileishmanial activity against Leishmania donovani MHOM/SD/62/1S-CL2D promastigotes assessed as reduction in parasite growth incubated for 24 hrs by resazurin dye based analysis; type: functional, organism-based
[2] = system: HepG2; test: Cytotoxicity against human HepG2 cells assessed as reduction in cell growth measured after 48 hrs by SRB assay; type: functional
[3] = system: Leishmania donovani; test: Antileishmanial activity against Leishmania donovani MHOM/IN/00/DEVI assessed as inhibition of parasite growth measured for 48 hrs by MTT assay; type: functional, organism-based
[4] = system: Leishmania mexicana; test: Antileishmanial activity against Leishmania mexicana promastigotes; type: functional, organism-based
[5] = system: Leishmania infantum; test: Antileishmanial activity against Leishmania infantum promastigote assessed as reduction in parasite growth after 72 hrs by MTT assay; type: functional, organism-based
[6] = system: J774.A1; test: Cytotoxicity against mouse J774.A1 cells assessed as reduction in cell viability incubated for 72 hrs by MTT assay; type: functional
[7] = system: Leishmania infantum; test: Antileishmanial activity against Leishmania infantum MHOM/BR/1972/BH46 amastigotes assessed as reduction in cell viability measured for 48 hrs by PI staining based flow cytometry analysis; type: functional, organism-based; conditions: MHOM/BR/1972/BH46, 48 h
[8] = system: Leishmania infantum; test: Antileishmanial activity against Leishmania infantum MHOM/BR/1972/BH46 promastigotes assessed as reduction in parasite viability measured for 48 hrs by PI staining based flow cytometry analysis; type: functional, organism-based; conditions: MHOM/BR/1972/BH46, 48 h
[9] = system: HT-29; test: Antiproliferative activity against human HT-29 cells assessed as reduction in cell viability incubated for 48 hrs by MTT assay; type: functional, cell-based; conditions: HT-29, 48 h
[10] = system: NCI-H1299; test: Antiproliferative activity against human NCI-H1299 cells assessed as reduction in cell viability incubated for 48 hrs by MTT assay; type: functional, cell-based; conditions: NCI-H1299, 48 h
[11] = Antileishmanial activity against Leishmania infantum BCN-150 promastigotes assessed as reduction in parasite growth incubated for 48 hrs by MTT assay; type: functional
[12] = system: Leishmania major; test: Antileishmanial activity against Leishmania major MHOM/IL/80/Friendlin assessed as reduction in parasite growth incubated for 48 hrs by MTT assay; type: functional, organism-based
[13] = system: Leishmania major; test: Antileishmanial activity against Leishmania major assessed as reduction in parasite growth; type: functional, organism-based
[14] = system: Leishmania aethiopica; test: Antileishmanial activity against Leishmania aethiopica amastigotes assessed as inhibition of parasite growth measured after 24 hrs by Alamar blue based analysis; type: functional, organism-based
[15] = system: Leishmania amazonensis; test: Antileishmanial activity against Leishmania amazonensis promastigotes assessed as inhibition of parasite growth; type: functional; parameters: scale not given: the % may be the effect or the level left
[16] = system: HepG2; test: Antiproliferative activity against human HepG2 cells assessed as reduction in cell viability incubated for 72 hrs by MTT assay; type: functional, cell-based; conditions: HepG2, 72 h
[17] = system: Leishmania donovani; test: Antileishmanial activity against Leishmania donovani promastigotes assessed as inhibition of parasite growth; type: functional, organism-based
[18] = system: Leishmania braziliensis; test: Antileishmanial activity against Leishmania braziliensis promastigotes; type: functional, organism-based
[19] = Cytotoxicity against African green monkey Vero cells assessed as reduction in cell growth; type: toxicity, cell-based, Chlorocebus sabaeus
[20] = system: Leishmania donovani; test: Antileishmanial activity against Leishmania donovani promastigotes assessed as parasitic proliferation inhibition incubated for 3 days by resazurin dye based assay; type: functional, organism-based; conditions: Leishmania donovani, 72 h; read-out: IC50
[21] = system: Leishmania donovani; test: Antileishmanial activity against Leishmania donovani MHOM/SD/62/1S assessed as inhibition of parasite growth by resazurin/alamar blue fluorometric assay; type: functional, organism-based
[22] = system: Leishmania major; test: Antileishmanial activity against Leishmania major IR-173 promastigotes assessed as inhibition of parasite growth incubated for 48 hrs by resazurin dye based assay; type: functional, organism-based; conditions: IR-173, 48 h
[23] = system: Leishmania donovani; test: Antileishmanial activity against Leishmania donovani 9515 promastigotes assessed as inhibition of parasite growth incubated for 48 hrs by resazurin dye based assay; type: functional, organism-based; conditions: Leishmania donovani, 9515, 48 h
[24] = Cytotoxicity against HEK293 cells assessed as reduction in cell viability incubated for 6 days by CellTiter-Glo luminescent cell viability assay; type: toxicity, cell-based; conditions: human
[25] = system: Leishmania donovani; test: Antileishmanial activity against Leishmania donovani amastigotes assessed as parasite growth inhibition incubated for 72 hrs by MTS assay; type: functional, organism-based
[26] = system: Leishmania donovani; test: Antileishmanial activity against Leishmania donovani amastigotes; type: functional, organism-based
[27] = system: Leishmania donovani; test: Antileishmanial activity against Leishmania donovani amastigotes infected in human THP-1 cells assessed as inhibition of parasite infection incubated for 72 hrs by DAPI staining based assay; type: functional, organism-based; conditions: THP-1, 72 h
[28] = system: Leishmania donovani; test: Antileishmanial activity against Leishmania donovani amastigotes infected in J774.A1 macrophage assessed as inhibition of parasite growth by luciferase assay; type: functional, organism-based
[29] = system: Leishmania amazonensis; test: Antileishmanial activity against Leishmania amazonensis MHOM/BR/75/Josefa promastigotes assessed as reduction in parasite viability after 72 hrs by Neubauer chamber counting method; type: functional, organism-based
[30] = system: Leishmania donovani; test: Antileishmanial activity against Leishmania donovani MHOM/SD/62/1S amastigotes assessed as reduction in cell growth; type: functional, organism-based
[31] = system: Leishmania donovani; test: Antileishmanial activity against Leishmania donovani promastigotes assessed as parasite growth inhibition incubated for 72 hrs by alamar blue staining based assay; type: functional, organism-based
[32] = system: Leishmania major; test: Antileishmanial activity against Leishmania major promastigotes assessed as reduction in parasite viability measured after 72 hrs by Giemsa-staining based microscopic analysis; type: functional, organism-based

In the case of `CCCCCCCCCCCCCCCC(=O)CC(=O)N1CCC[C@@H]1COP(=O)([O-])OCC[N+](C)(C)C`, the IC50 [1] is reported as 28.3 µM.
With `C(=N/CCCN(N1CCCCC1)N1CCCCC1)/c1cc(-c2ccccc2)c2ccc3c(-c4ccccc4)cc(/C=N/CCCN(N4CCCCC4)N4CCCCC4)nc3c2n1` the CC50 [2] was 1.64 µM and the IC50 [3] was 2.52 µM.
Compound `COc1cc(/C=C/C(=O)c2ccccc2Cl)ccc1OCC=C(C)C` has an IC50 [4] of 8.04 µM.
In the case of `CC1(C)CC(=O)c2cc(CNC(=O)C/C=C/c3ccccc3)ccc2S1`, the IC50 [5] is reported as 10.5 µM and the CC50 [6] is reported as 31.6 µM.
For `CCCc1cc(OC)c2oc(=O)c(C(=O)c3ccc([N+](=O)[O-])cc3)cc2c1`, the IC50 [7] was 6.8 µM and the IC50 [8] was 12 µM.
`N#C[Se]/C=C/c1ccccc1` showed an IC50 [9] of 11.9 µM, an IC50 [10] of 11.9 µM and an IC50 [11] of 3.7 µM. It also gave an IC50 [12] of 3.3 µM.
For `Cc1nc2ccc(Cl)cn2c1C(=O)N1CCN(Cc2cn(-c3ccc(Cl)cc3)nn2)CC1`, the IC50 [13] was 15.1 µM.
In the case of `NC(=O)[C@@H]1CSC(c2cn(-c3ccccc3)nc2-c2ccccc2)N1` (some centres not stated), the IC50 [14] is reported as 1.02 µg/mL (≈ 2.91 µM).
In the case of `CCCCCCCCCn1cc(CN2CCN(C(=O)c3c(C)nc4ccc(C)cn34)CC2)nn1`, the IC50 [13] is reported as 15.1 µM.
For `CC(C)CC1NC(=S)NC1=O` (configuration not stated), the Activity [15] was 32%.
`C(=N/CCCN(c1cccnc1)c1cccnc1)/c1cc(-c2ccccc2)c2ccc3c(-c4ccccc4)cc(/C=N/CCCN(c4cccnc4)c4cccnc4)nc3c2n1` showed a CC50 [2] of 1.64 µM and an IC50 [3] of 2.52 µM.
Compound `C/C=C1\NC(=S)NC1=O` has an Activity [15] of 28%.
With `Cc1nc2c3ccccc3c3ccccc3n2c1C(=O)NCc1cn(-c2cccc([N+](=O)[O-])c2)nn1` the EC50 [16] was under 30 µM.
Compound `Cc1ccc(-n2cc(C3=NCCS3)c(-c3ccccc3)n2)cc1` has an IC50 [14] of 1.02 µg/mL (≈ 3.19 µM).
In the case of `CCCn1c(C)cc(O)c(C(=O)Nc2ccc(Br)cc2)c1=O`, the IC50 [17] is reported as 55 µM.
For `Cc1cc(OCCCCNC(C)(C)C)cc2oc3cc(OCCCCNC(C)(C)C)cc(O)c3c(=O)c12`, the IC50 [18] was 0.1 µM and the IC50 [19] was 15.5 µM.
With `CCOC(=O)C1=CNC(=S)NC1c1ccc(Cl)cc1` (configuration not stated) the IC50 [20] was 29.3 µg/mL (≈ 98.7 µM).
Work on `O=C(N/N=C/c1ccc([N+](=O)[O-])o1)c1ccc(OCc2ccc(F)cc2)cc1` yielded an IC50 [21] of 0.23 µM, an IC50 [22] of 0.28 µM and an IC50 [23] of 0.86 µM.
Work on `C#CCN1C(=O)CN(/N=C/c2ccc([N+](=O)[O-])o2)C1=O` yielded an IC50 at 6 days [24] of 88.5 µM, an IC50 [25] of 3.03 µM and an IC50 [26] of 0.39 µM.
Work on `CCCC(=O)N1N=C(c2ccccc2)CC1c1cn(-c2ccc(Cl)cc2)nc1-c1ccccc1` (configuration not stated) yielded an IC50 [27] of 1.45 µM and an IC50 [28] of 0.89 µM.
`CN(C)c1ccc(-c2nc(C3=NCCO3)cc3c2[nH]c2ccccc23)cc1` showed an IC50 [29] of 6.1 µM.
For `Cc1ccc2c(NCCCCCNC(=O)c3cccc(/C=C/C(=O)c4ccc(C)o4)c3)ccnc2c1`, the IC50 [30] was 0.46 µM.
Work on `COc1ccc2nc(C(=O)NCCCN(C)C)ccc2c1` yielded an IC50 [31] of 8 µM.
`COC(=O)C1=C(C)NC(=S)NC1c1ccc(Cl)cc1` (configuration not stated) gave an EC50 [32] of 15.5 µM.
In the case of `N#C[Se]c1ccc2c(c1)OCO2`, the IC50 [9] is reported as 61.2 µM, the IC50 [10] is reported as 82.5 µM and the IC50 [11] is reported as 3.3 µM. It also gave an IC50 [12] of 4.6 µM.
In the case of `Cc1ccc2nc(C)c(C(=O)N3CCN(Cc4cn(-c5ccc(C(C)(C)C)cc5)nn4)CC3)n2c1`, the IC50 [13] is reported as 15.1 µM.
For `COc1cc(C(=O)/C=C/c2ccc([N+](=O)[O-])cc2)ccc1OCC=C(C)C`, the IC50 [4] was 8.22 µM.
For `COc1ccc(Cn2c(C)cc(O)c(C(=O)Nc3ccc(C)cc3)c2=O)cc1`, the IC50 [17] was 55 µM.
With `C(=N/CCCN(c1ccncc1)c1ccncc1)/c1cc(-c2ccccc2)c2ccc3c(-c4ccccc4)cc(/C=N/CCCN(c4ccncc4)c4ccncc4)nc3c2n1` the CC50 [2] was 1.64 µM and the IC50 [3] was 2.52 µM.
Compound `O=C1NC(=S)N2CCCC12` (configuration not stated) has an Activity [15] of 20%.
